# Entries after “also recorded” stand apart in the source; their conditions may differ.
# Columns and labels:
# [1] = tested on: thrombus formation (platelet and fibrin) in cremaster arterioles; assay: Laser-induced cremaster arteriole thrombosis model; format: in vivo, mouse
# Experimental: Wild type (WT) or 12-LOX^−/− mice (12 weeks of age) were anesthetized by intraperitoneal injection of ketamine/xylazine (100 mg/kg) prior to the exposure of the cremaster muscle arterioles under a dissecting microscope with constant perfusion of preheated bicarbonate-buffered saline (Reheman et al., J Thromb Haemost 3:875-883, 2005; Reheman et al., Blood 113:1809-1817, 2009; Wang et al., J Clin Invest 124:4281-4293, 2014). Anti-platelet (DyLight 488 anti-GPIb, 1 μg/g) and anti-fibrin (Alexa Fluor 647, 0.3 μg/g) antibodies were administered via jugular vein catheter prior to intravital microscopy. DGLA (50 mg/kg) or DMSO (vehicle control) were dissolved in a formulation of 5% DMSO and 45% PEG300 in sterile 1×PBS and then intravenously injected into mice 10 minutes prior to induction of thrombosis. 12(S)-HETrE (6 mg/kg) or equal volume of DMSO (vehicle control) was also intravenously injected into mice 10 minutes prior to induction of thrombosis. Multiple independent thrombi were induced in the arterioles (30-50 μm diameter) in each mouse by a laser ablation system (Ablate! photoablation system; Intelligent Imaging Innovations, Denver, Colo., USA). Images of thrombus formation were acquired in real-time under 63× water-immersion objective with a Zeiss Axio Examiner Z1 fluorescent microscope equipped with solid laser launch system (LaserStack; Intelligent Imaging Innovations) and high-speed sCMOS camera. All captured images were analyzed on Slidebook (Intelligent Imaging Innovations Inc., Denver, Colo., USA).
# [2] = tested on: VASP (serine 157); assay: VASP phosphorylation in human platelets; format: cell-based; conditions: 25 μM, 1 min; vs DMSO
# Experimental: Washed platelets were treated with PUFA or PUFA metabolite (12(S)-HETrE or compound IIc) for one minute, then directly lysed in 5× Laemmeli sample buffer (1.5 M Tris-HCl, pH 6.8, glycerol, 5% β-mercaptoethanol, 10% sodium dodecyl sulfate (SDS), and 1% bromophenol blue). The samples were boiled for five minutes and then run on a 10% SDS-PAGE gel. The levels of total and phospho-VASP (serine 157) were quantified by Western Blot using an Odyssey imaging system (LI-CoR).
# [3] = tested on: adenylyl cyclase; assay: LC/MS quantification of cAMP in washed human platelets; format: cell-based; conditions: 25 μM, 1 min; platelets pre-treated with 10 μM IBMX; vs DMSO
# Experimental: Washed human platelets were treated with the specific ligand or vehicle control for 1 min at room temperature, and quenched with an equal volume of ice-cold 2× platelet lysis buffer containing protease and phosphatase inhibitors. Lysed platelet samples were centrifuged at 14,000 g for 7 min at 4° C. to pellet cytoskeleton and the supernatant was stored in −80° C.
# To prepare the sample for LC/MS injection, 200 μL of the supernatant was spiked with 400 pg of adenosine-3′,5′-cyclic-13C5 monophosphate (^13C5-cAMP) (Toronto Research Chemicals, Inc.), an internal standard, and 600 μL of LC/MS grade acetonitrile (Fisher Scientific). The sample was briefly vortexed and centrifuged at 14,000 rpm for 10 min at 4° C. The supernatants were then air dried in a SpeedVac and reconstituted in 200 μL of LC/MS grade water and centrifuged at 10,000 rpm for 5 min at 4° C. and used for LC/MS injection.
# The separation and detection of cAMP was performed on a Waters ACQUITY UPLC system equipped with a Xevo Triple Quadrupole Mass Spectrometer (TQ-S MS/MS). […]
# The mass spectrometer was operated with an ESI source in positive mode. […] Cyclic AMP (cAMP) was quantitated using ^13C5-cAMP as the internal standard. […]
# [4] = tested on: platelets of mice expressing the human FcγRIIa receptor; assay: Animal model of ITP (anti-GPIX in mice expressing human FcγRIIa); format: in vivo, mouse; conditions: 6 mg/kg i.v. 10 min before GPIX antibody
# Experimental: Mice expressing the human immune-receptor FcγRIIa were injected IV with GPIX, an antibody known to induce acute ITP (Stolla et al., Blood 118(4): 1113-1120, 2011) as previously described (Yeung et al., Blood 124(4): 2271-2279, 2014). […] To determine if 12(S)-HETrE compounds would be viable therapeutics to prevent ITP in this model, 6 mg/kg 12(S)-HETrE was injected IV 10 minutes prior to GPIX antibody injection, and platelet count was measured at several time points prior to and following antibody injection. Additionally, immunofluorescent-labelled platelets that had been injected prior to the onset of ITP were measured in excised lungs 4 hours following GPIX administration.
# [5] = WT mice, 6 mg/kg i.v. 10 min before laser injury, vs vehicle
structure (smiles),measurement,setting,value
"CCCCC/C=C\C[C@H](O)/C=C/C=C\CCCCCCC(=O)O [12(S)-HETrE, 12(S)-hydroxy-8Z,10E,14Z-eicosatrienoic acid]",platelet accumulation,"[1]; 12-LOX−/− mice, 6 mg/kg i.v., vs 12-LOX−/− alone",significant inhibition of platelet accumulation
same,fibrin accumulation,"[1]; 12-LOX−/− mice, 6 mg/kg i.v., vs vehicle",no difference in fibrin accumulation
same,thrombus size and stability by fibrin accumulation,[1]; [5],significantly smaller and less stable thrombi
same,thrombus size and stability by platelet accumulation,[1]; [5],significantly smaller and less stable thrombi
same,VASP phosphorylation (S157),[2],enhanced VASP phosphorylation
same,level of intracellular cAMP,[3],significant increase in the level of intracellular cAMP
same,reduction of thrombi in the lungs,[4]; excised lungs,more than 40%
same,accumulation of fluorescently labeled platelets in the lungs,"[4]; lungs excised 4 hours after GPIX, vs vehicle",prevented accumulation of fluorescently labeled platelets in the lungs
same,platelet count (thrombocytopenia),[4]; vs vehicle,no signs of thrombocytopenia; also recorded: prevented thrombocytopenia
